From ChEMBL document CHEMBL1201862, “PubChem BioAssay data set” (2004)
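Grown in 96-well plates, cells were treated for 48 hours with each compound at five concentrations. Insufficient inhibition: endpoint recorded as highest concentration tested. GI50: concentration for 50% inhibition of growth.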 Activity calls are given as the source filed them. Cut-off read from the data, not from the text of the source: active = GI50 up to about 1.1 µM and inactive = higher.

Tests used:
Assay in all cases: inhibition of tumour cell growth, NCI panel, 48 h
[1] = test system: 786-0
[2] = test system: A498
[3] = test system: ACHN
[4] = test system: CAKI-1
[5] = test system: HCC 2998
[6] = test system: HOP-92
[7] = test system: MCF7
[8] = test system: MDA-MB-231
[9] = test system: MDA-MB-435
[10] = test system: MDA-N
[11] = test system: Malme-3M
[12] = test system: NCI-H226
[13] = test system: NCI-H23
[14] = test system: OVCAR-3
[15] = test system: OVCAR-4
[16] = test system: OVCAR-8
[17] = test system: SF-539
[18] = test system: SK-MEL-2
[19] = test system: SNB-75
[20] = test system: U-251

Structure (SMILES)	GI50 [1]	GI50 [2]	GI50 [3]	GI50 [4]	GI50 [5]	GI50 [6]	GI50 [7]	GI50 [8]	GI50 [9]	GI50 [10]	GI50 [11]	GI50 [12]	GI50 [13]	GI50 [14]	GI50 [15]	GI50 [16]	GI50 [17]	GI50 [18]	GI50 [19]	GI50 [20]
C=CCCCCCCCCCOC1C=CC(O)C(CO)O1 (stereo unspecified)	44.5 µM (inactive)	99.5 µM (inactive)	46.5 µM (inactive)	56 µM (inactive)	41.1 µM (inactive)	33.5 µM (inactive)	41.4 µM (inactive)	75.5 µM (inactive)	35.5 µM (inactive)	33.3 µM (inactive)	28.1 µM (inactive)	> 100 µM (inactive)	28.2 µM (inactive)	38 µM (inactive)	46.6 µM (inactive)	17.5 µM (inactive)	95.7 µM (inactive)	35.7 µM (inactive)	51.2 µM (inactive)	28.6 µM (inactive)
CC(CC(=O)O)(CC(=O)O)C(=O)O	> 100 µM (inactive)	> 100 µM (inactive)	> 100 µM (inactive)	> 100 µM (inactive)	> 100 µM (inactive)	> 100 µM (inactive)	> 100 µM (inactive)	> 100 µM (inactive)	> 100 µM (inactive)	> 100 µM (inactive)	> 100 µM (inactive)		> 100 µM (inactive)	> 100 µM (inactive)	> 100 µM (inactive)	> 100 µM (inactive)	> 100 µM (inactive)	> 100 µM (inactive)	> 100 µM (inactive)	> 100 µM (inactive)
COc1ccc(-c2cc(O)c3cc(OC)c(OC)cc3n2)cc1OC	> 100 µM (inactive)	> 100 µM (inactive)	> 100 µM (inactive)	> 100 µM (inactive)	> 100 µM (inactive)	64.4 µM (inactive)	> 100 µM (inactive)	> 100 µM (inactive)	> 100 µM (inactive)	> 100 µM (inactive)	> 100 µM (inactive)	> 100 µM (inactive)	> 100 µM (inactive)	> 100 µM (inactive)	> 100 µM (inactive)	> 100 µM (inactive)	> 100 µM (inactive)		37.2 µM (inactive)	> 100 µM (inactive)
CO/C=C(/C(=O)OC)c1ccccc1Oc1c(F)c(F)c(F)c(F)c1F	33.7 µM (inactive)	36.7 µM (inactive)	50.4 µM (inactive)	12.8 µM (inactive)	36.7 µM (inactive)	19.6 µM (inactive)	38.2 µM (inactive)	29.5 µM (inactive)	29.7 µM (inactive)	41.6 µM (inactive)		38.2 µM (inactive)	37.7 µM (inactive)	21.3 µM (inactive)	24.4 µM (inactive)	80.5 µM (inactive)	56 µM (inactive)	24.2 µM (inactive)		44.7 µM (inactive)
CC(=O)OC(OC(C)=O)c1ccc2ccc3cccc4ccc1c2c34	36.1 µM (inactive)	1.48 µM (inactive)	26.2 µM (inactive)	9.04 µM (inactive)	11.3 µM (inactive)	17.9 µM (inactive)	23.6 µM (inactive)	10.1 µM (inactive)	18.9 µM (inactive)	15.2 µM (inactive)	12.3 µM (inactive)	3.08 µM (inactive)	18.7 µM (inactive)	26.7 µM (inactive)		12.8 µM (inactive)	38.7 µM (inactive)		15.7 µM (inactive)	14.3 µM (inactive)
CSc1nc(C)c(CCOC(C)=O)c(Cl)n1	> 100 µM (inactive)	48 µM (inactive)	> 100 µM (inactive)	> 100 µM (inactive)	> 100 µM (inactive)	> 100 µM (inactive)	> 100 µM (inactive)	> 100 µM (inactive)	> 100 µM (inactive)	> 100 µM (inactive)	> 100 µM (inactive)	> 100 µM (inactive)	> 100 µM (inactive)	> 100 µM (inactive)	> 100 µM (inactive)	> 100 µM (inactive)	> 100 µM (inactive)		> 100 µM (inactive)	> 100 µM (inactive)
CC(=O)N1NC(c2ccccc2)=CC(=O)/C1=C/C(=O)c1ccccc1	> 100 µM (inactive)	> 100 µM (inactive)	77.3 µM (inactive)	29.7 µM (inactive)	> 100 µM (inactive)	34.5 µM (inactive)	43.7 µM (inactive)	> 100 µM (inactive)	20.2 µM (inactive)	30.6 µM (inactive)	37.6 µM (inactive)	93.8 µM (inactive)	> 100 µM (inactive)	28.6 µM (inactive)	84.1 µM (inactive)	> 100 µM (inactive)	32.1 µM (inactive)	> 100 µM (inactive)		> 100 µM (inactive)
O=C1COCCN1C(=O)c1ccccc1Cl	> 100 µM (inactive)	> 100 µM (inactive)	> 100 µM (inactive)	> 100 µM (inactive)	> 100 µM (inactive)	> 100 µM (inactive)	34 µM (inactive)	> 100 µM (inactive)	> 100 µM (inactive)	> 100 µM (inactive)	> 100 µM (inactive)	> 100 µM (inactive)	> 100 µM (inactive)	> 100 µM (inactive)	> 100 µM (inactive)	> 100 µM (inactive)	> 100 µM (inactive)		> 100 µM (inactive)	> 100 µM (inactive)
Cc1nc2sc3cccc(Cl)c3n2c(=O)c1/N=N/c1ccc(Cl)cc1	> 100 µM (inactive)	17.4 µM (inactive)	59.7 µM (inactive)	> 100 µM (inactive)		46.6 µM (inactive)	87.5 µM (inactive)	71 µM (inactive)	> 100 µM (inactive)	> 100 µM (inactive)	70.6 µM (inactive)	42.4 µM (inactive)	99.8 µM (inactive)	46.7 µM (inactive)	> 100 µM (inactive)	> 100 µM (inactive)	> 100 µM (inactive)	> 100 µM (inactive)	85.3 µM (inactive)	> 100 µM (inactive)
COC1=CC(=O)c2c(O)ccc(O)c2C1=O	14.6 µM (inactive)	17.8 µM (inactive)	16.5 µM (inactive)		4.49 µM (inactive)	18.6 µM (inactive)	2.82 µM (inactive)	3.12 µM (inactive)	0.659 µM (active)	0.7 µM (active)	0.0607 µM (active)	21.6 µM (inactive)	2.64 µM (inactive)	2.18 µM (inactive)	13.6 µM (inactive)	21.4 µM (inactive)	5.19 µM (inactive)		1.91 µM (inactive)	13.1 µM (inactive)
COc1ccc(/C=C2/SC(c3ccc(Cl)cc3)N(NC(=O)CCCCCCCCC(=O)NN3C(=O)/C(=C\c4ccc(OC)c(OC)c4)SC3c3ccc(Cl)cc3)C2=O)cc1OC (stereo unspecified)	24.4 µM (inactive)	24.4 µM (inactive)	65.2 µM (inactive)	47.1 µM (inactive)	> 100 µM (inactive)	18.8 µM (inactive)	> 100 µM (inactive)	> 100 µM (inactive)	42 µM (inactive)	36.6 µM (inactive)		> 100 µM (inactive)	20.4 µM (inactive)	60 µM (inactive)	> 100 µM (inactive)	52.8 µM (inactive)	29.2 µM (inactive)	78 µM (inactive)	> 100 µM (inactive)	> 100 µM (inactive)
O=[N+]([O-])c1ccc(C(O)(C#CCN2CCCC2)c2ccccc2)cc1 (stereo unspecified)	39.4 µM (inactive)	23.3 µM (inactive)	56.2 µM (inactive)		16.2 µM (inactive)	10.2 µM (inactive)	53.7 µM (inactive)	43 µM (inactive)	24.1 µM (inactive)	34.1 µM (inactive)	16.6 µM (inactive)	81.5 µM (inactive)	96.8 µM (inactive)	49 µM (inactive)	31.5 µM (inactive)	36.6 µM (inactive)	82 µM (inactive)	24.5 µM (inactive)	30.1 µM (inactive)	38.9 µM (inactive)
CC1(C)O[C@H]2OC(CO)C(N=[N+]=[N-])[C@H]2O1 (stereo partly specified)	> 100 µM (inactive)	> 100 µM (inactive)	> 100 µM (inactive)	> 100 µM (inactive)	> 100 µM (inactive)	> 100 µM (inactive)	> 100 µM (inactive)	> 100 µM (inactive)	> 100 µM (inactive)	> 100 µM (inactive)	> 100 µM (inactive)		> 100 µM (inactive)	> 100 µM (inactive)	> 100 µM (inactive)	> 100 µM (inactive)	> 100 µM (inactive)	> 100 µM (inactive)	> 100 µM (inactive)	> 100 µM (inactive)
CC1(C)[C@@H](Cn2cnc3c(O)nc(N)nc32)CC[C@@]1(C)CO	> 100 µM (inactive)	> 100 µM (inactive)	> 100 µM (inactive)	> 100 µM (inactive)	> 100 µM (inactive)	> 100 µM (inactive)	> 100 µM (inactive)	> 100 µM (inactive)	> 100 µM (inactive)	> 100 µM (inactive)		> 100 µM (inactive)		> 100 µM (inactive)	> 100 µM (inactive)		> 100 µM (inactive)	> 100 µM (inactive)	> 100 µM (inactive)	> 100 µM (inactive)
Sc1nc(S)nc(Oc2ccc(Cl)c(Cl)c2)n1	> 61.2 µM (inactive)	24 µM (inactive)	48.3 µM (inactive)	46.3 µM (inactive)	17.8 µM (inactive)	19.2 µM (inactive)	50.6 µM (inactive)	39.4 µM (inactive)	> 100 µM (inactive)	77.1 µM (inactive)	> 47.2 µM (inactive)	38.1 µM (inactive)	27.2 µM (inactive)	29.6 µM (inactive)	41.1 µM (inactive)	32.5 µM (inactive)	> 44.8 µM (inactive)		30.3 µM (inactive)	44.8 µM (inactive)
